Measured values: patent publication US9598434B2, “Benzazepine compound” (Astellas Pharma Inc., priority 2010, dated 2017)
pEC50: −log10 of the molar value. Like-named read-outs stand apart in the source and are kept apart here.

What was measured:
human 5-HT2C receptor = biological target: T1, human 5-HT2C receptor (Homo sapiens, UniProt P28335); experiment: Evaluation of 5-HT2C receptor agonist activity (intracellular calcium increase, FLIPR, CHO cells stably expressing the receptor); assay type: cell-based; conditions: for Emax: CHO, read-out: 5-HT2C agonist activity Emax
T1 construct: expressed in transfected cells
T1 sequence (P28335 33-458): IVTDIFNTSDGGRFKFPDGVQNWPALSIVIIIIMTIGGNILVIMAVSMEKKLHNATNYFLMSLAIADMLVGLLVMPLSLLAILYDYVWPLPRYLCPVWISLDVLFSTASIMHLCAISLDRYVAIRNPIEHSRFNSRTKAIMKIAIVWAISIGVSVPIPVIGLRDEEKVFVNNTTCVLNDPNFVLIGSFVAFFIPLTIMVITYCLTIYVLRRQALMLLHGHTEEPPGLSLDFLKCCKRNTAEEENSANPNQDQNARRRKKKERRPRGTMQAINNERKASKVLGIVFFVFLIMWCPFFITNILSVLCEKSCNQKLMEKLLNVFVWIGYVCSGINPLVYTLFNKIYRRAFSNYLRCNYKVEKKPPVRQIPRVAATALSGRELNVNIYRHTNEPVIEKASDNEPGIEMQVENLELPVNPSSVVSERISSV
Method: The agonist activity of the compound of the formula (I) on the 5-HT2C receptor was confirmed by the method shown below.
The human 5-HT2C receptor agonist activity was evaluated by measuring the increase of the ligand-dependent intracellular calcium concentration. CHO cells which stably expressing a human 5-HT2C receptor were used. The receptor-expressing cells were prepared by transfecting the genes of the human 5-HT2C receptor (Accession numbers: AF498983 (5-HT2C)) into CHO cells (dihydrofolic acid-deficient strain, DS Pharma Biomedical Co., Ltd.)) using a pEF-BOS vector (Nucleic Acids Research, vol. 18, No. 17). After transcription, the 5-HT2C is known to be subjected to RNA editing to cause differences in three kinds of amino acids, resulting in fourteen receptor isoforms. Among them, cells stably expressing an INI type of 5-HT2C receptor which had not been subjected to editing were used. Cells used for evaluation were cultured in a 10% fetal bovine serum (FBS)-containing medium (trade name: α-MEM, Invitrogen) at 37° C. and 5% carbon dioxide. On the day before the evaluation, the cells were suspended in a serum-free medium (trade name: CD-CHO, Invitrogen) containing 8 mM L-glutamine (trade name: L-glutamine 200 mM, Invitrogen, added to the medium at a final concentration of 8 mM) and dispensed into a 96-well poly-D-lysine-coated plate (trade name: Biocoat PDL96W Black/Clear, Japan Becton, Dickinson and Company)) at 4×10^4 cells/well and cultured at 37° C. and 5% carbon dioxide overnight. A solution including a washing solution (mixture of Hank's Balanced Salt Solution (HBSS)-sodium hydroxide (NaOH), 20 mM 2-[4-(2-hydroxyethyl)-1-piperazinyl]ethanesulfonic acid (HEPES)-sodium hydroxide (NaOH), 2.5 mM probenecid, and 0.1% bovine serum albumin (BSA)), and a 4 μM fluorescent reagent (trade name: Fluo4-AM, Dojindo Co., Ltd.) was used as a loading buffer and the medium of the 96-well plate which had been cultured overnight was replaced with a loading buffer. After leaving to stand (with light-shielding) at room temperature for 3 hours, the cells were washed with a plate washer (trade name: ELx405, BioTek Instruments, Inc.) in which a washing solution had been set up. The plates of the washed cells were set up in a system for measuring a calcium (Ca) concentration in a cell (trade name: FLIPR, Molecular Devices, Inc.). In this device, a test compound that had been dissolved in dimethyl sulfoxide and diluted in the washing solution at a predetermined concentration was added and set up to measure a change in the Ca concentrations in a cell. The difference between a maximum value and a minimum value in the change of the intracellular Ca concentration was determined and kept as measurement data.
Taking the maximum reaction of the 5-HT (agonist action with addition of 5-HT 10 μM) as 100% and the reaction of a solvent alone as 0%, the efficacy (Emax (%)) and potency (EC50 (nM)) of the present invention compound to the maximum reaction of the 5-HT were calculated with a logistic regression method.

[1] = system: Hartley female guinea pigs; experiment: Measurement of external urethral sphincter electromyography; assay type: in vivo, guinea pig; conditions: Cavia porcellus, read-out: external urethral sphincter electromyography activity
Text: The activating action of the compound of the formula (I) on the urethral sphincter electromyography was confirmed with the method shown below.
Hartley female guinea pigs with a body weight of 250 to 350 g were anesthetized with urethane (Sigma). The guinea pigs were fixed in a supine position and catheters (PE-50; Clay Adams) for administration of test compounds were inserted into the jugular vein. Further, a catheters (PE-160; Clay Adams), for an infusion of physiological saline into bladder and measurement of the intravesical pressure, were inserted through an incision into the dome of the bladder. Further, in order to measure the external urethral sphincter electromyography, two electrodes were inserted into both the left and right sides of the urethral opening to the urethral sphincter. The electrodes for measuring base voltages were placed under the skin of the hind part. The bladder catheter was branched over a three-way stopcock, and one was connected with a 50 mL syringe (Terumo) fixed to an infusion pump (Terumo). The other was connected to a pressure transducer (DX-100; Nihon Kohden Corporation) to transfer the signal of the transducer through an amplifier (AP-630G; Nihon Kohden Corporation) and a data acquisition system (PowerLab; AD Instruments) to a computer and record on a hard disk. The electrodes for electromyography measurement were connected to a control unit (JB-101J; Nihon Kohden Corporation) to transfer the signal through an amplifier (AP-651J; Nihon Kohden Corporation) and a data acquisition system (PowerLab; AD Instruments) to a computer and record on a hard disk. Further, the data were analyzed on the computer using a software (Chart; AD Instruments). […] The electromyography activity was analyzed by taking the lowest potential amplitude as a standard during the stabilization period and using the firing frequency over the standard amplitude as an indicator. At internals between the respective urinations (urine filling phase), the activity of the urethral sphincter electromyography was analyzed and its average value was calculated. After the stabilization period, the solvent and the test compound were administered at an increased dose at an interval of 40 minutes through the catheter placed into the jugular vein. The urethral sphincter electromyography activity after the administration of the solvent was taken as 100% and the urethral sphincter electromyography activity after the administration of the test compound was denoted as a percentage (%) of the electromyography activity after the administration of the solvent.

[2] = CHO cells stably expressing INI type human 5-HT2C receptor, intracellular Ca increase, logistic regression, read-out: 5-HT2C agonist activity EC50
[3] = intravenous administration at 3 mg/kg, urethane-anesthetized guinea pigs, activity after solvent taken as 100%

SMILES	pEC50 (human 5-HT2C receptor; [2])	Emax (human 5-HT2C receptor) [%]	response vs control in vivo at 3 mg/kg [1, 3] [%]	melting point [°C]	pEC50 (human 5-HT2C receptor)	response vs control in vivo at 3 mg/kg ([1]; iv) [%]
CO[C@H](C)CN1CCOc2cc3c(c(C4CC4)c21)CCNCC3.O=C(O)/C=C/C(=O)O [Example 243]	9.28	96	≥ 200	133 to 136		
O=C(O)/C=C/C(=O)O.c1cc2c(cc1CN1CCOc3cc4c(c(C5CC5)c31)CCNCC4)OCCO2 [Example 291]	8.92	93	≥ 200	165 to 168		
COCc1cccc(CN2CCOc3cc4c(c(C5CC5)c32)CCNCC4)c1.O=C(O)/C=C/C(=O)O [Example 288]	9.19	90	≥ 200	190 to 193		
FCCCN1CCOc2cc3c(c(C4CC4)c21)CCNCC3.O=C(O)/C=C/C(=O)O [Example 141]		100		144 to 147	9.44	≥ 200
COCCCN1CCOc2cc3c(cc21)CCNCC3.O=C(O)/C=C/C(=O)O [Example 59]	8.15	108	≥ 200	141 to 145		
c1c2c(c(C3CC3)c3c1OCCN3C[C@@H]1CCCO1)CCNCC2 [Example 215]	9.00	96		154 to 156		≥ 200
Fc1cc(F)cc(CN2CCOc3cc4c(c(C5CC5)c32)CCNCC4)c1.O=C(O)/C=C/C(=O)O [Example 313]	8.38	97	≥ 200	191 to 194		
O=C(O)/C=C/C(=O)O.c1ccc2c(c1)OCC(CN1CCOc3cc4c(c(C5CC5)c31)CCNCC4)O2 (centres unmarked) [Example 267]	9.29	99	≥ 200	179 to 182		
COCCCN1CCOc2cc3c(c(C4CC4)c21)CCNCC3.O=C(O)/C=C/C(=O)O [Example 106]	8.96	112	≥ 200	169 to 171		
Cc1cccc(CN2CCOc3cc4c(c(C5CC5)c32)CCNCC4)c1.O=C(O)/C=C/C(=O)O [Example 277]	8.64	95	≥ 200	192 to 195		
Fc1ccccc1CN1CCOc2cc3c(c(C4CC4)c21)CCNCC3.O=C(O)/C=C/C(=O)O [Example 265]	8.89	97	≥ 200	133 to 136		
CCOCCN1CCOc2cc3c(c(C4CC4)c21)CCNCC3.O=C(O)/C=C/C(=O)O [Example 104]	8.96	107	≥ 200	140 to 145		
Cc1ccccc1CN1CCOc2cc3c(c(C4CC4)c21)CCNCC3.O=C(O)/C=C/C(=O)O [Example 276]	8.19	104	≥ 200	163 to 166		
CO[C@H](CF)CN1CCOc2cc3c(c(C4CC4)c21)CCNCC3 [Example 287]	9.00	97	≥ 200			
Clc1cccc(CN2CCOc3cc4c(c(C5CC5)c32)CCNCC4)c1.O=C(O)CCC(=O)O [Example 258]	8.72	97	≥ 200	139 to 141		
c1ccc(OCCN2CCOc3cc4c(c(C5CC5)c32)CCNCC4)cc1 [Example 268]	9.04	99	≥ 200			
Fc1ccc(Cl)cc1CN1CCOc2cc3c(c(C4CC4)c21)CCNCC3.O=C(O)/C=C/C(=O)O [Example 290]	8.42	93	≥ 200	165 to 168		
CCO[C@H](C)CN1CCOc2cc3c(c(C4CC4)c21)CCNCC3.O=C(O)/C=C/C(=O)O [Example 315]	8.55	108	≥ 200	157 to 160		
O=C(O)/C=C/C(=O)O.c1c2c(c(C3CC3)c3c1OCCN3CC1CCCOC1)CCNCC2 (centres unmarked) [Example 263]	8.55	96	≥ 200	186 to 189		
COCCN1c2c(cc3c(c2C2CC2)CCNCC3)OC[C@@H]1C [Example 292]	9.19	93	≥ 200			
